Reference: US20180099931A1 (AbbVie S.à.r.l., priority 2016, published 2018)
Like-named read-outs stand apart in the source and are kept apart here.

Molecular target: T1, F508delCFTR (Homo sapiens, UniProt P13569, DEL508-508)
T1 construct: expressed in transfected cells; host or cells: CFBE41o- human lung-derived epithelial cells (CFBE4lo-F508delCFTR-HRP), doxycycline-inducible
Assay: Cell Surface Expression-Horse Radish Peroxidase (CSE-HRP) Assay;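 for Maximum % activity (with co-corrector): co-corrector and positive control are both the same reference corrector at 2 µM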;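 for Maximum % activity (without co-corrector): percent of the 2 µM on-plate positive control corrector response above DMSO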
Assay type: cell-based
Settings: for Emax / Maximum % activity (with co-corrector): maximum at any tested concentration, normalized to on-plate positive control; for Emax: read-out: Maximum % activity (without co-corrector)
Experimental: Cell Surface Expression-Horse Radish Peroxidase (CSE-HRP) Assay;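 for Maximum % activity (with co-corrector): co-corrector and positive control are both the same reference corrector at 2 µM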;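 for Maximum % activity (without co-corrector): percent of the 2 µM on-plate positive control corrector response above DMSO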
The development was achieved by expressing the F508delCFTR mutation along with a horseradish peroxidase (HRP) in the fourth exofacial loop, and then measuring the HRP activity using luminescence readout from these cells, CFBE4lo-F508delCFTR-HRP, that were incubated overnight with the test corrector compounds, either without or with the co-corrector. […] The test compounds were then added either without or with a co-corrector at the required concentrations and further incubated for 18-24 hours at 33° C. The highest concentration tested was 20 μM with an 8-point concentration response curve using a 3-fold dilution in both the test compound without or with the co-corrector. Three replicate plates were run to determine one EC50. All plates contained negative controls (dimethyl sulfoxide, DMSO) and positive control (2 μM of 3-[(2R,4R)-4-({[1-(2,2-difluoro-1,3-benzodioxol-5-yl)cyclopropyl]carbonyl}amino)-7-methoxy-3,4-dihydro-2H-chromen-2-yl]benzoic acid) as well as on-plate concentration response of the positive control. […] The raw counts from the experiment were analyzed using Accelrys® Assay Explorer v3.3.
1−[3*SDPositive Control+3*SDNegative Control/Absolute(MeanPositive Control−MeanNegative Control)]
wherein “SD” is standard deviation.
The % activity measured at each of the 8 test concentrations of the test compound added either without or with a co-corrector (2 μM of 3-[(2R,4R)-4-({[1-(2,2-difluoro-1,3-benzodioxol-5-yl)cyclopropyl]carbonyl}amino)-7-methoxy-3,4-dihydro-2H-chromen-2-yl]benzoic acid) was normalized to the on-plate positive control using the following formulae:
% activity(Test compound without co-corrector)=[(test compound without co-corrector response−DMSO response)/(positive control response−DMSO response)]*100
% activity(Test compound with co-corrector)=[(test compound with co-corrector response−DMSO response)/(positive control response−DMSO response)]*100
The maximum % activity achieved for the test compound either without or with a co-corrector at any tested concentration is presented in Table 4 along with the respective EC50's calculated using the following general sigmoidal curve with variable Hill slope equation (described as Model 42 in the Accelrys® Assay Explorer v3.3 software):
General sigmoidal curve with concentration, response, top, bottom, EC50 and Hill slope. This model describes a sigmoidal curve with an adjustable baseline, a. The equation can be used to fit curves where response is either increasing or decreasing with respect to the independent variable, “x”.
“x” is a concentration of drug under test. “y” is the response. “a” is the maximum response, and “d” is the minimum response “c” is the inflection point (EC50) for the curve. That is, “y” is halfway between the lower and upper asymptotes when x=c. “b” is the slope-factor or Hill coefficient. The sign of b is positive when the response increases with increasing dose and is negative when the response decreases with increasing dose (inhibition).

[1] = test compound without co-corrector
[2] = test compound without co-corrector, read-out: EC50 (without co-corrector)
[3] = with co-corrector (2 μM of 3-[(2R,4R)-4-({[1-(2,2-difluoro-1,3-benzodioxol-5-yl)cyclopropyl]carbonyl}amino)-7-methoxy-3,4-dihydro-2H-chromen-2-yl]benzoic acid)
[4] = with co-corrector (2 μM of 3-[(2R,4R)-4-({[1-(2,2-difluoro-1,3-benzodioxol-5-yl)cyclopropyl]carbonyl}amino)-7-methoxy-3,4-dihydro-2H-chromen-2-yl]benzoic acid), read-out: EC50 (with co-corrector)

T1 sequence (P13569 with tags, fused parts or gaps DEL508-508): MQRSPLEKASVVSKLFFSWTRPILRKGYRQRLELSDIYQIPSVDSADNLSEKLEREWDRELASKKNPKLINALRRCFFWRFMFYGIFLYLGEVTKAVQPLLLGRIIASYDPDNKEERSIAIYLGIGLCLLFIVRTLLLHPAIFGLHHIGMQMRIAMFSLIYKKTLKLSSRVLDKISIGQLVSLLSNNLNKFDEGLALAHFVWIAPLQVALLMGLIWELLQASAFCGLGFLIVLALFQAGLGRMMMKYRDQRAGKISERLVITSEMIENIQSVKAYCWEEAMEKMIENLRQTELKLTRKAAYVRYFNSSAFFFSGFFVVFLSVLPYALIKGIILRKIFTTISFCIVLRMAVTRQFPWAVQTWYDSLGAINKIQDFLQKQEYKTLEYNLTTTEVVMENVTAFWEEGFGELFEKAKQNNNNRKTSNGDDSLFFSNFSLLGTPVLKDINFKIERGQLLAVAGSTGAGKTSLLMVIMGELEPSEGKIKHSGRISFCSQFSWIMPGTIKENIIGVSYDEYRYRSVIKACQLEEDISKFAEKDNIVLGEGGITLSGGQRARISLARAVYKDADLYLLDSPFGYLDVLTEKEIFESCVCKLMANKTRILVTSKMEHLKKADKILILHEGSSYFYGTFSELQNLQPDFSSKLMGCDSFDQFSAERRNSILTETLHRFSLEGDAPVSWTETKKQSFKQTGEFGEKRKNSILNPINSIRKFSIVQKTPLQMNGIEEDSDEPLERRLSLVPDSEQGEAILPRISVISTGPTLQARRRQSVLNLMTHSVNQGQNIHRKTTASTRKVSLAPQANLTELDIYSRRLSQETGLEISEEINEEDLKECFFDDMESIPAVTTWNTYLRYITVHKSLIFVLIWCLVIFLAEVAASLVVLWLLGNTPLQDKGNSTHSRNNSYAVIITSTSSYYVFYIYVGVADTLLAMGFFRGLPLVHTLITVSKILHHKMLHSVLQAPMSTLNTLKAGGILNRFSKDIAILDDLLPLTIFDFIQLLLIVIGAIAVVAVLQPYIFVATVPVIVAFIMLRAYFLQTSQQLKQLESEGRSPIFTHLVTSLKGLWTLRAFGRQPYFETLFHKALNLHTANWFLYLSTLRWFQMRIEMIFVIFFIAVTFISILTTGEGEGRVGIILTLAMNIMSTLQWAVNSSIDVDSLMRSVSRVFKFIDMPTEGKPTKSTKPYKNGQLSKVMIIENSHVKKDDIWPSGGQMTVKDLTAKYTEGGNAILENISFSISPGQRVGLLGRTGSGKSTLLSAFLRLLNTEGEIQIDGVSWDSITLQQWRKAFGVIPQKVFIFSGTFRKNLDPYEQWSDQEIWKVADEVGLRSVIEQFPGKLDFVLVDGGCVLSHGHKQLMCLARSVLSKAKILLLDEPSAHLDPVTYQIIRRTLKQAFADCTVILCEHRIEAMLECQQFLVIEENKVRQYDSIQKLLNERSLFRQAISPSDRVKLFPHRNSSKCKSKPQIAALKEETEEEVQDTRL

| Structure (SMILES) | Emax [1] | EC50 [2] | Maximum % activity (with co-corrector) [3] | EC50 [4] |
| --- | --- | --- | --- | --- |
| Cc1cc(C(F)(F)F)cc(N[C@H]2C(c3ccccc3)N(C(=O)N(C(C)C)C(C)C)[C@@H](C(=O)O)[C@@H]2C2CC2)n1 (mixture of isomers) [III-47] | < 100% | 1 to 10 µM | ++ (≥150 and <350) | 1 to 10 µM |
| COc1ccc(Cl)cc1CN[C@@H]1[C@@H](C2CC2)[C@H](C(=O)O)N(C(=O)N(C(C)C)C(C)C)[C@@H]1c1ccccc1 (racemic) [III-48] | < 100% | > 10 µM | ++ (≥150 and <350) | 1 to 10 µM |
| Cc1cc(C(F)(F)F)cc(N[C@@H]2[C@@H](C(C)(C)C)[C@H](C(=O)NS(=O)(=O)C(C)(C)C)N(C(=O)C3CCCCC3)[C@@H]2c2ccccc2)n1 (racemic) [III-50] | < 100% | > 10 µM | ++ (≥150 and <350) | 1 to 10 µM |
| Cc1cc(C(F)(F)F)cc(N[C@@H]2[C@@H](C(C)(C)C)[C@H](C(=O)NS(=O)(=O)C3(C)CC3)N(C(=O)C3CCCCC3)[C@@H]2c2ccccc2)n1 (racemic) [III-51] | < 100% | 1 to 10 µM | ++ (≥150 and <350) | 1 to 10 µM |
| Cc1cc(C(F)(F)F)cc(N[C@@H]2[C@@H](C(C)(C)C)[C@H](C(=O)NS(=O)(=O)C3CC3)N(C(=O)C3CCCCC3)[C@@H]2c2ccccc2)n1 (racemic) [III-52] | < 100% | > 10 µM | ++ (≥150 and <350) | < 1 µM |
| CCS(=O)(=O)NC(=O)[C@H]1[C@H](C(C)(C)C)[C@@H](Nc2cc(C(F)(F)F)cc(C)n2)[C@@H](c2ccccc2)N1C(=O)C1CCCCC1 (racemic) [III-53] | < 100% | > 10 µM | ++ (≥150 and <350) | 1 to 10 µM |
| Cc1cc(C(F)(F)F)cc(N[C@@H]2[C@@H](C(C)(C)C)[C@H](C(=O)NS(=O)(=O)N(C)C)N(C(=O)C3CCCCC3)[C@@H]2c2ccccc2)n1 (racemic) [III-54] | < 100% | 1 to 10 µM | ++ (≥150 and <350) | 1 to 10 µM |
| CCN(C)S(=O)(=O)NC(=O)[C@H]1[C@H](C(C)(C)C)[C@@H](Nc2cc(C(F)(F)F)cc(C)n2)[C@@H](c2ccccc2)N1C(=O)C1CCCCC1 (racemic) [III-55] | < 100% | > 10 µM | ++ (≥150 and <350) | 1 to 10 µM |
| Cc1cc(C(F)(F)F)cc(N[C@@H]2[C@@H](C(C)(C)C)[C@H](C(=O)NS(C)(=O)=O)N(C(=O)C3CCCCC3)[C@@H]2c2ccccc2)n1 (racemic) [III-56] | < 100% | > 10 µM | ++ (≥150 and <350) | 1 to 10 µM |
| O=C(O)[C@@H]1N(C(=O)C2CCCCC2)[C@H](c2ccccc2)[C@H](NCc2ccccc2OC(F)F)C12CC2 (racemic) [III-57] | < 100% | > 10 µM | ++ (≥150 and <350) | 1 to 10 µM |
| COc1cccc([C@@H]2[C@H](NCc3ccccc3OC(F)F)[C@@H](C(C)(C)C)[C@H](C(=O)O)N2C(=O)N(C(C)C)C(C)C)n1 (racemic) [III-59] | < 100% | > 10 µM | + (<150) | 1 to 10 µM |
| COc1ccc(C(F)(F)F)cc1CN[C@@H]1[C@@H](C(C)(C)C)[C@H](C(=O)O)N(C(=O)C2CCCCC2)[C@@H]1c1ccccn1 (racemic) [III-60] | < 100% | 1 to 10 µM | +++ (≥350) | 1 to 10 µM |
| COc1ccc(Cl)cc1CN[C@@H]1[C@@H](C(C)(C)C)[C@H](C(=O)O)N(C(=O)C2CCCCC2)[C@@H]1c1ccccn1 (racemic) [III-61] | < 100% | 1 to 10 µM | +++ (≥350) | 1 to 10 µM |
| COc1cccc([C@@H]2[C@H](Nc3cc(C(F)(F)F)cc(C)n3)[C@@H](C(C)(C)C)[C@H](C(=O)O)N2C(=O)C2C3COCC32)n1 (mixture of isomers) [III-62] | < 100% | 1 to 10 µM | ++ (≥150 and <350) | 1 to 10 µM |
| COc1cccc([C@@H]2[C@H](Nc3cc(C(F)(F)F)cc(C)n3)[C@@H](C(C)(C)C)[C@H](C(=O)O)N2C(=O)C2CCCCO2)n1 (mixture of isomers) [III-63] | < 100% | > 10 µM | + (<150) | > 10 µM |
| COCCOc1ccc(C(F)(F)F)cc1CN[C@@H]1[C@@H](C(C)(C)C)[C@H](C(=O)O)N(C(=O)C2CCCCC2)[C@@H]1c1ccccc1 (racemic) [III-64] | < 100% | 1 to 10 µM | ++ (≥150 and <350) | 1 to 10 µM |
| COCCn1cc(C(F)(F)F)cc(CN[C@H]2[C@H](C(C)(C)C)[C@@H](C(=O)O)N(C(=O)C3CCCCC3)[C@H]2c2ccccc2)c1=O (racemic) [III-65] | < 100% | > 10 µM | ++ (≥150 and <350) | 1 to 10 µM |
| CC(C)(C)[C@@H]1[C@@H](NCc2cc(C(F)(F)F)ccc2OCCO)[C@@H](c2ccccc2)N(C(=O)C2CCCCC2)[C@H]1C(=O)O (racemic) [III-66] | < 100% | > 10 µM | ++ (≥150 and <350) | 1 to 10 µM |
| COc1cccc([C@@H]2[C@H](NCc3ccc(Cl)cc3OC)[C@@H](C(C)(C)C)[C@H](C(=O)O)N2C(=O)C2CCCCC2)n1 (racemic) [III-67] | 100 to 200% | 1 to 10 µM | +++ (≥350) | 1 to 10 µM |
| COc1cccc([C@H]2[C@@H](NCc3cc(C(F)(F)F)ccc3OC)[C@H](C(C)(C)C)[C@@H](C(=O)O)N2C(=O)C2CCCOC2)n1 (mixture of isomers) [III-69] | < 100% | 1 to 10 µM | +++ (≥350) | 1 to 10 µM |
| COc1ccc(C(F)(F)F)cc1CN[C@@H]1[C@@H](C(C)(C)C)[C@H](C(=O)O)N(C(=O)C2C3COCC32)[C@@H]1c1ccccc1N(C)C (mixture of isomers) [III-71] | > 200% | 1 to 10 µM | +++ (≥350) | 1 to 10 µM |
| COCCOc1cnc(Cl)cc1CN[C@@H]1[C@@H](C(C)(C)C)[C@H](C(=O)O)N(C(=O)C2CCCCC2)[C@@H]1c1ccccc1 (racemic) [III-72] | < 100% | > 10 µM | ++ (≥150 and <350) | 1 to 10 µM |
| CC(C)(C)[C@@H]1[C@@H](NCc2cc(Cl)ncc2O)[C@@H](c2ccccc2)N(C(=O)C2CCCCC2)[C@H]1C(=O)O (racemic) [III-73] | < 100% | > 10 µM | ++ (≥150 and <350) | 1 to 10 µM |
| CC(C)(C)[C@@H]1[C@@H](NCc2cc(C(F)(F)F)cnc2N)[C@@H](c2ccccc2)N(C(=O)C2CCCCC2)[C@H]1C(=O)O (racemic) [III-74] | < 100% | > 10 µM | ++ (≥150 and <350) | 1 to 10 µM |
| COc1cccc([C@H]2[C@@H](Nc3cccc(OC(F)F)n3)[C@H](C(C)(C)C)[C@@H](C(=O)O)N2C(=O)C2(C)CCCOC2)n1 (mixture of isomers) [III-76] | < 100% | > 10 µM | ++ (≥150 and <350) | 1 to 10 µM |
| COc1ccc(C(F)(F)F)cc1CN[C@H]1[C@H](C(C)(C)C)[C@@H](C(=O)O)N(C(=O)C2(C)CCCOC2)[C@H]1c1ccccc1N(C)C (mixture of isomers) [III-77] | < 100% | 1 to 10 µM | +++ (≥350) | 1 to 10 µM |
